# Reference: US20260216169A1, “NAPHTHYLAMIDE COMPOUND, AND PREPARATION METHOD THEREFOR AND USE THEREOF” (SHENZHEN CHIPSCREEN BIOSCIENCES CO., LTD., priority 2022, published 2026)
# Key:
# PANC02 cells = experiment: Anti-tumor efficacy in PANC02 mouse pancreatic cancer graft tumor model; format: in vivo, C57BL/6 mice; conditions: for Mean tumor volumes (mm^3 ± SEM), Day 9 / Tumor volume inhibition rate (% TGI), Day 9: 10 mg/kg/day intragastric once daily; for Mean tumor volumes (mm^3 ± SEM), Day 0: 10 mg/kg/day intragastric, grouping and administration Day 0
# Source text: A mouse PANC02 pancreatic cancer graft tumor model was constructed: the experimental animals were C57BL/6 mice (female, 6 weeks old), the tumor cells were PANC02 cells (mouse pancreatic cancer cells), and the cell culture medium was a DMEM culture medium containing 1% double antibiotic and 10% fetal bovine serum. PANC02 cells in the logarithmic growth phase and in good condition were collected and inoculated subcutaneously into the left flank of C57BL/6 mice at a concentration of 0.9×10^6 cells/0.2 mL. The long diameters (a, mm) and short diameters (b, mm) of the tumors were measured using a vernier caliper, and tumor volume (V, mm^3) was calculated using the formula: V=½a×b^2. Tumor volume was measured 2-3 times weekly using the vernier caliper. When the mean tumor volumes of the mice reached 190 mm^3 or above, the mice were divided into 4 groups of 8 and dosed, and the day of grouping was represented by day 0. The groups were as follows: a solvent control group (0.2% aqueous solution of CMC-Na), a compound I-9 group (10 mg/kg/day), a control molecule 01 (chiauranib) group (10 mg/kg/day), and a control molecule 02 group (10 mg/kg/day). All four groups received intragastric administration once daily for consecutive days, and the experiment was terminated on the day of the last dose.
# The tumor volume results were represented as mean and standard error (Mean±S.E.M). Intergroup comparisons were performed using the Mann Whitney test. If p<0.05, the difference is considered to be statistically significant. The tumor volume inhibition rate (TGI) was calculated using the formula: TGI (%)=[1−(Ti−T0)/(Vi−V0)]×100% (Ti: mean tumor volume of the treatment group on day i of administration; TO: mean tumor volume of the treatment group on day 0 of administration; Vi: mean tumor volume of the solvent control group on day i of administration; V0: mean tumor volume of the solvent control group on day 0 of administration).
# Molt-4 cells = experiment: Effects on tumor cell cycle, PI staining and flow cytometry; format: cell-based, human; conditions: 48 h
# Source text: When the activity of Aurora B kinase is inhibited in tumor cells, the arrangement and separation of chromosomes are blocked, leading to cytokinesis failure and the formation of tetraploid or polyploid cells. Moreover, severe genomic instability and mitotic catastrophe result in apoptosis. The intracellular DNA content can be mapped with propidium iodide (PI), a fluorescent dye that specifically binds to nucleic acid, so that cell states can be distinguished into sub-G0/G1 (apoptosis), G0/G1, S, G2/M (tetraploid), and polyploid states.
# Experimental process: Molt-4 cells (human acute lymphoblastic leukemia cells, CRL-1582) were purchased from the American Type Culture Collection (ATCC). Molt-4 cells in the logarithmic growth phase were collected from suspension culture and counted. The cells were seeded into a 6-well plate at 10^6 cells/well and cultured overnight under normal conditions. The test compounds were prepared as 1 mM and 3 mM solutions in DMSO, and the solutions in DMSO were diluted 50-fold with culture medium. Finally, the above solutions were added to the culture system in a volume ratio of 1:19, achieving a final compound concentration of 1 μM or 3 μM in each well. After 48 h of incubation, the cells were collected by centrifugation. Each cell sample was resuspended in 300 μL of PBS, and the suspension was added dropwise to 700 μL of pre-cooled absolute ethanol. Then the mixture was gently inverted several times for thorough mixing to complete cell collection and fixation. The samples were left to stand at 4° C. for more than 12 h and then analyzed by flow cytometry.
# A working dye solution was prepared by homogeneously mixing PBS, a 10 mg/mL PI stock solution, and a 10 mg/mL RNase A solution in a ratio of 1000:5:2. The fixed cell samples were centrifuged at 4° C. and 1000 rpm for 10 min. The supernatants were completely removed using a pipette, and the cells were washed twice with PBS and resuspended in the above working dye solution at […]. After incubation in a dark place at 37° C. for 30 min, the cells were filtered using a 200-mesh stainless steel strainer, and the filtrate was loaded onto a flow cytometer for cell cycle analysis (10,000 cells counted per sample).
# Histograms showing DNA contents were obtained from the flow cytometry analysis, and the cell cycle distribution in each sample was analyzed using the flow cytometry data analysis software FlowJo. The mean (X) and standard deviation (SD) were calculated, and data were represented as X±SD. The apoptosis and the proportions of tetraploid and polyploid cells after Molt-4 cells were treated with different doses of the test compounds are shown in Table 3 below.
# VEGFR2 = target: T1, VEGFR2 (Homo sapiens, UniProt P35968); experiment: HTRF KinEASE test against VEGFR2, reported as relative selectivity IC50-VEGFR2/IC50-Aurora B; format: biochemical; conditions: ratio of IC50 against VEGFR2 to IC50 against Aurora B
# T1 construct: purchased Carna 08-191
# Description: (§1) Preparation of working solutions of compounds in DMSO with gradient concentrations: 0.2 mM solutions of the compounds in DMSO were prepared and serially diluted with DMSO to form working solutions with 10 gradient concentrations (corresponding to final compound concentrations of 1000 nM, 300 nM, 100 nM, 30 nM, 10 nM, 3 nM, 1 nM, 0.3 nM, 0.1 nM, and 0.03 nM in the reaction system).
# (§2) Tests of inhibitory activity against Aurora B kinase and VEGFR2: The half maximal inhibitory concentrations (IC50) of the compounds against Aurora B kinase and VEGFR2 were determined using HTRF KinEASE-TK kit (Cisbio, Cat #62TKOPEC) and HTRF KinEASE-STK kit (Cisbio, Cat #61ST2BLE). A 2× kinase & Metal solution (Aurora B/Cat #05-102 and VEGFR2/Cat #08-191, both purchased from Carna) and a 2× Substrate & ATP solution (for Aurora B and VEGFR2, substrates S2 and TK were used, respectively) were prepared according to the kit instructions. The working solutions of the test compounds with gradient concentrations were added to a 384-well plate at 25 nL/well, and 2.5 μL of the 2× kinase & Metal solution was added to each well. The plate was sealed with a plate-sealing film, well shaken, centrifuged, and then incubated at 25° C. for 10 min. Then, the 2× Substrate & ATP solution was added at 2.5 μL/well, and the plate was incubated again at 25° C. for 30 min. Finally, a 2× XL665 & Antibody kinase detection reaction solution was added at 5 μL/well. After the plate was incubated at 25° C. for 60 min, the fluorescence signals at wavelengths of 665 nm and 620 nm in each well were measured by a microplate reader.
# (§3) The 665 nm/620 nm fluorescence signal ratio (X) of each well was calculated. With the compound-free well as a negative control (Y) and the enzyme-free well as a positive control (Z), the inhibition rate of the compound in each test well against the corresponding kinase was calculated using the formula: inhibition (%)=100%−(X−Z)/(Y−Z)×100%, and the half maximal inhibitory concentration (IC50) of each compound against the corresponding kinase was calculated by GraphPad 7.0 software.
# [1] = Brain permeation assay in mice; format: in vivo; conditions: B/C, mouse, oral; female mice, 5 mg/kg intragastric, 4 h after administration; read-out: Brain permeation (ratio of compound concentration in brain tissue to concentration in plasma)
# Description: The objective of this example was to test whether the compounds of the present disclosure are able to cross the blood-brain barrier (BBB). The compounds of the present disclosure were dissolved in a vehicle containing 5% dimethyl sulfoxide, 60% 1,3-propanediol, and 35% purified water, and intragastrically administered to B/C female mice aged 6 weeks (purchased from Guangdong Medical Laboratory Animal Center) at 5 mg/kg. The animals were sacrificed 4 h after the administration, and blood and brain tissue samples were collected. The blood samples were anticoagulated with K2-EDTA and centrifuged at 5000 rpm for 5 min to separate plasma. The brain tissue samples were accurately weighed and homogenized with a certain amount of phosphate-buffered saline (PBS) solution, and the biological samples were stored at −80° C. before analysis. After sample extraction, the compound concentration was determined using a liquid chromatography-tandem mass spectrometry (LC-MS/MS) system. Brain permeation was defined as the ratio of the compound concentration in brain tissue to the concentration in plasma.
# Aurora B kinase [2] = target: T2, Aurora B kinase (Homo sapiens, UniProt Q96GD4); experiment: HTRF KinEASE test of inhibitory activity against Aurora B kinase; format: biochemical; design: purchased Carna 05-102; conditions: Carna kinase, substrate S2
# Description: as §1, §2, §3
# Target sequence in this assay (Q96GD4 whole entry): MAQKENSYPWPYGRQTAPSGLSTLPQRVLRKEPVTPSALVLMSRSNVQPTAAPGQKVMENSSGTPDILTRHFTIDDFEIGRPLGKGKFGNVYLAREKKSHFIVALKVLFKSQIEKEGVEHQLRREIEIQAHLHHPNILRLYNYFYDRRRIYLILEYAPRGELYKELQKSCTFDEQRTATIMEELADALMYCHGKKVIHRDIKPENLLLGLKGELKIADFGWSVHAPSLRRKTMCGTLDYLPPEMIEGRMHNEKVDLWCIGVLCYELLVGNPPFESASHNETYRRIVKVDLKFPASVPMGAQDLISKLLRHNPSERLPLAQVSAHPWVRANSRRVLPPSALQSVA
# Target sequence in this assay (Q9NQS7 803-916 partner limits assumed): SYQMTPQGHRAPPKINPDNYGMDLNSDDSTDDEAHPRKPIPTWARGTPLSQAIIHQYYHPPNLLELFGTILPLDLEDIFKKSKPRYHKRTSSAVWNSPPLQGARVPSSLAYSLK
# [3] = human, 65-mg treatment group, phase I; cited from earlier work
# Aurora B kinase [4] = target: T2, Aurora B kinase; experiment: In vitro cytological assays of Aurora B kinase inhibition; format: cell-based; design: dose or concentration left out as unconfirmed
# Target sequence in this assay (Q96GD4 whole entry): as the sequence (Q96GD4 whole entry) above
# T1 sequence (P35968 790-1356 limits assumed): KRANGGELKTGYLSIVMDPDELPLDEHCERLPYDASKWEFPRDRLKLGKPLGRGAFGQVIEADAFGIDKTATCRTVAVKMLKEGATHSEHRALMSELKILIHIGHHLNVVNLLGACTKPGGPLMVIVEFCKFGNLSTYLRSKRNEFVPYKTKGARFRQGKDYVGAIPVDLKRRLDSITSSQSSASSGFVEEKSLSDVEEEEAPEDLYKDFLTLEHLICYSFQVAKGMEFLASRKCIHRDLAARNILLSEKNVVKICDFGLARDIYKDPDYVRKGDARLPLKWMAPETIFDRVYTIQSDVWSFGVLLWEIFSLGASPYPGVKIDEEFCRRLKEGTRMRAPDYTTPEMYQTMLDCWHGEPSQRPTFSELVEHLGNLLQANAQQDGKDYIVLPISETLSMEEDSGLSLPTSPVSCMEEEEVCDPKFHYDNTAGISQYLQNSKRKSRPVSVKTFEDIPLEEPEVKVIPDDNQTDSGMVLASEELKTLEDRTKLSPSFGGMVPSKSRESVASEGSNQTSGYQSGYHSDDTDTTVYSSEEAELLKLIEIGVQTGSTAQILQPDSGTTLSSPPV
SMILES,"Mean tumor volumes (mm^3 ± SEM), Day 9 (PANC02 cells)","Tumor volume inhibition rate (% TGI), Day 9 (PANC02 cells)","Mean tumor volumes (mm^3 ± SEM), Day 0 (PANC02 cells)",Apoptosis (%) DNA < 2N (Molt-4 cells; dose 1 μM),Polyploid (%) DNA > 4N (Molt-4 cells; dose 1 μM),Tetraploid (%) DNA = 4N (Molt-4 cells; dose 1 μM),Total (apoptosis + tetraploid + polyploid) (Molt-4 cells; dose 1 μM),Apoptosis (%) DNA < 2N (Molt-4 cells; dose 3 μM),Polyploid (%) DNA > 4N (Molt-4 cells; dose 3 μM),Tetraploid (%) DNA = 4N (Molt-4 cells; dose 3 μM),Total (apoptosis + tetraploid + polyploid) (Molt-4 cells; dose 3 μM),Selectivity for Aurora B IC50-VEGFR2/IC50-Aurora B (VEGFR2),Kp at 4 h [1],IC50 (Aurora B kinase [2]),further results
COc1ccc2c(Oc3ccc4c(C(=O)Nc5ccc(F)c(F)c5N)cccc4c3)ccnc2c1 [Compound I-9],145.9 ± 38.5 mm^3,114.0%,193.9 ± 38.5 mm^3,24.60 ± 8.06%,55.15 ± 15.20%,6.07 ± 7.25%,85.82,21.35 ± 5.87%,56.10 ± 12.02%,5.39 ± 6.10%,82.84,17.57,0.6,1.79 nM,"Tumor volume compared with solvent control group (PANC02 cells; Day 9, Mann Whitney test, p<0.001): significantly reduced tumor volumes; Tumor volume compared with control molecule 01 (chiauranib) group (PANC02 cells; Day 9, Mann Whitney test, p<0.01): significantly reduced tumor volumes; Tumor volume compared with control molecule 02 group (PANC02 cells; Day 9, Mann Whitney test, p<0.05): significantly reduced tumor volumes"
"COc1ccc2c(Oc3ccc4c(C(=O)Nc5ccccc5N)cccc4c3)ccnc2c1 [Control molecule 01, chiauranib, reference compound]",278.4 ± 35.6 mm^3,74.6%,191.5 ± 33.9 mm^3,10.23 ± 0.67%,3.73 ± 2.95%,14.80 ± 6.51%,28.76,16.40 ± 6.65%,6.40 ± 5.66%,16.25 ± 8.13%,39.05,1.54,0.28,10.8 nM,"Tumor volume inhibition rate (% TGI), Day 9 (PANC02 cells; listed as control molecule 01): 74.6%; Dose-limiting toxicity (DLT) [3]: grade 3 hypertension; Inhibitory activity against Aurora B kinase (Aurora B kinase [4]): relatively weak inhibitory activity"
"COc1ccc2c(Oc3ccc4c(C(=O)Nc5ccc(F)cc5N)cccc4c3)ccnc2c1 [Control molecule 02, reference compound]",299.3 ± 68.2 mm^3,68.9%,192.7 ± 36 mm^3,10.07 ± 1.18%,7.94 ± 3.77%,18.05 ± 0.35%,36.06,23.80 ± 2.26%,55.70 ± 1.41%,8.40 ± 4.96%,87.90,4.16,0.27,2.08 nM,"Tumor volume inhibition rate (% TGI), Day 9 (PANC02 cells; listed as control molecule 02): 68.9%"
